Experimental data: patent publication US9168259B2 (GRÜNENTHAL GMBH, priority 2010, dated 2015)

Molecular target: T1, KCNQ2/3 channels (Homo sapiens, UniProt O43525+O43526)
T1 construct: expressed in transfected cells
Test: Fluorescence assay using a voltage sensitive dye (fluorimetry)
Assay type: cell-based
Conditions: CHO-K1 cells expressing KCNQ2/3; for Emax: CHO-K1, plateau effect relative to saturated retigabine (50 μM) = 100%, negative values = antagonistic, read-out: Fluorimetry % efficacy (retigabine = 100%); for EC50: IC50 where % efficacy is negative, read-out: Fluorimetry EC50/IC50

T1 sequence (O43526 whole entry): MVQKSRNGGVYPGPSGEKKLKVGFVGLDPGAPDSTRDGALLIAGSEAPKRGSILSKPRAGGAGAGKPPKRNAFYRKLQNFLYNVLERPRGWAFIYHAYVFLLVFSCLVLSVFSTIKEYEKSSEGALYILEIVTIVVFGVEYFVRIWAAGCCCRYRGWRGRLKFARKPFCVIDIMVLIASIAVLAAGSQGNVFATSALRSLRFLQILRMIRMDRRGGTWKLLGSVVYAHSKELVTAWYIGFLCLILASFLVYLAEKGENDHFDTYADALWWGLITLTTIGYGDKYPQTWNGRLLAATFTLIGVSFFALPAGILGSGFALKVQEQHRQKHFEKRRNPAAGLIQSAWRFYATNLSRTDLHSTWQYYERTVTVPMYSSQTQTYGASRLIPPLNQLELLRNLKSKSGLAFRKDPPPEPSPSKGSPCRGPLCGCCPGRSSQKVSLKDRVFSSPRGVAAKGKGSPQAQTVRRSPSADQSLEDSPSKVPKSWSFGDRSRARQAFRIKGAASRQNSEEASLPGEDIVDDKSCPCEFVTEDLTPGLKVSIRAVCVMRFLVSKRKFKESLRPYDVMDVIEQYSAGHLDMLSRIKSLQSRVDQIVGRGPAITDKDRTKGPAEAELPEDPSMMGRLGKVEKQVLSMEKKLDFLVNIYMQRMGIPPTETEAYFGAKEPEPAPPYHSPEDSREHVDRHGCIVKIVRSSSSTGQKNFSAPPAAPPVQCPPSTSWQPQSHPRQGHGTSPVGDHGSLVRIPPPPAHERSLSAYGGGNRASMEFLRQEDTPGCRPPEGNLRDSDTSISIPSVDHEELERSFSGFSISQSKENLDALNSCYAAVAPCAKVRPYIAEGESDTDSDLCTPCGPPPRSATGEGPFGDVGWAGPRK
T1 sequence (O43525 whole entry): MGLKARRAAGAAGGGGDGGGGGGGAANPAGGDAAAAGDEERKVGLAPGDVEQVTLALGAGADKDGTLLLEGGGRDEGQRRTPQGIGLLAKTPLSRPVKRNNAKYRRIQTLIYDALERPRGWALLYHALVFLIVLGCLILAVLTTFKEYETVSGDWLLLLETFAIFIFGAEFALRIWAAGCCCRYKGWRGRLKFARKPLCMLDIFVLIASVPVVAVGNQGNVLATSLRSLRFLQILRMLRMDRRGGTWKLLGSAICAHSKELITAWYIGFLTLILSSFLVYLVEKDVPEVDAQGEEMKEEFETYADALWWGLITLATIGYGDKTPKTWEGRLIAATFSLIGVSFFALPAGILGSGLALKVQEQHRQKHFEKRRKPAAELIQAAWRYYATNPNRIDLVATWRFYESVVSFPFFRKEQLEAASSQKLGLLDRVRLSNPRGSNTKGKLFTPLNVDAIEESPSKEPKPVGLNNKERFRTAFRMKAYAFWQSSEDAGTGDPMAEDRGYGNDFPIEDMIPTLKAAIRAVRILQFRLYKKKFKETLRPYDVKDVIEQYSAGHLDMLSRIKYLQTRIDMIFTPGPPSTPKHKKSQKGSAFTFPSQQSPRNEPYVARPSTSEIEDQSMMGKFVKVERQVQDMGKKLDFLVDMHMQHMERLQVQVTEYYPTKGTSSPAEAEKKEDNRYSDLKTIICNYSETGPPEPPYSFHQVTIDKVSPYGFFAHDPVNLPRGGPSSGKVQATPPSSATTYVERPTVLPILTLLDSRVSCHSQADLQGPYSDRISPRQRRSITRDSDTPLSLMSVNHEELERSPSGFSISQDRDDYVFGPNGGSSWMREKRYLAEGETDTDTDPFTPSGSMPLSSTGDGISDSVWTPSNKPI

Row | Structure (SMILES) | Emax | EC50
1 | CCSc1nc(N2CCOC[C@H]2C)cc(C)c1C(=O)NCc1ccc(Cl)cc1 [Example 207, N-[(4-Chlorophenyl)-methyl]-2-ethylsulfanyl-4-methyl-6-[(3R)-3-methyl-morpholin-4-yl]-pyridine-3-carboxylic acid amide] | 183% | 69 nM
2 | CCCCCCCNC(=O)c1c(C)cc(N2CCOCC2)nc1SCC [Example 209, 2-Ethylsulfanyl-N-heptyl-4-methyl-6-morpholin-4-yl-pyridine-3-carboxylic acid amide] | 192% | 234 nM
3 | CCSc1nc(N(C)C)cc(C)c1C(=O)NCCCC(C)(C)C [Example 210, 6-Dimethylamino-N-(4,4-dimethyl-pentyl)-2-ethylsulfanyl-4-methyl-pyridine-3-carboxylic acid amide] | 223% | 187 nM
4 | CCSc1nc(N(C)CCCOC)cc(C)c1C(=O)NCCCC(C)(C)C [Example 212, N-(4,4-Dimethyl-pentyl)-2-ethylsulfanyl-6-(3-methoxy-propyl-methyl-amino)-4-methyl-pyridine-3-carboxylic acid amide] | 200% | 152 nM
5 | CCCC1COCCN1c1cc(C)c(C(=O)NCc2cccc(F)c2)c(SCC)n1 (stereo not shown) [Example 213, 2-Ethylsulfanyl-N-[(3-fluorophenyl)-methyl]-4-methyl-6-(3-propyl-morpholin-4-yl)-pyridine-3-carboxylic acid amide] | 131% | 49 nM
6 | COc1nc(N2CCOC[C@H]2C)cc(C)c1C(=O)NCc1cccc(F)c1 [Example 214, N-[(3-Fluorophenyl)-methyl]-2-methoxy-4-methyl-6-[(3R)-3-methyl-morpholin-4-yl]-pyridine-3-carboxylic acid amide] | 194% | 224 nM
7 | CCC(C)c1nc(N2CCOCC2)cc(C)c1C(=O)NCc1cccc(F)c1 (stereo not shown) [Example 216, N-[(3-Fluorophenyl)-methyl]-4-methyl-2-(1-methyl-propyl)-6-morpholin-4-yl-pyridine-3-carboxylic acid amide] | 181% | 69 nM
8 | CCCCCCNC(=O)c1c(C)cc(N2CCOCC2)nc1SCC [Example 217, 2-Ethylsulfanyl-N-hexyl-4-methyl-6-morpholin-4-yl-pyridine-3-carboxylic acid amide] | 181% | 407 nM
9 | Cc1cc(N2CCOCC2)nc(C(C)(C)C)c1C(=O)NCCCC(C)(C)C [Example 220, 2-tert-Butyl-N-(4,4-dimethyl-pentyl)-4-methyl-6-morpholin-4-yl-pyridine-3-carboxylic acid amide] | 166% | 682 nM
10 | CCSc1nc(N2CCO[C@@H](COC)C2)cc(C)c1C(=O)NCc1cccc(F)c1 [Example 223, 2-Ethylsulfanyl-N-[(3-fluorophenyl)-methyl]-6-[(2R)-2-(methoxymethyl)-morpholin-4-yl]-4-methyl-pyridine-3-carboxylic acid amide] | 137% | 3660 nM
11 | CCSc1nc(N2CCOC[C@H]2C)cc(C)c1C(=O)NCc1ccc(F)c(F)c1 [Example 225, N-[(3,4-Difluoro-phenyl)-methyl]-2-ethylsulfanyl-4-methyl-6-[(3R)-3-methyl-morpholin-4-yl]-pyridine-3-carboxylic acid amide] | 173% | 71 nM
12 | CCSc1nc(N2CCOCC2)cc(C)c1C(=O)NCC(O)CC(C)C (stereo not shown) [Example 228, 2-Ethylsulfanyl-N-(2-hydroxy-4-methyl-pentyl)-4-methyl-6-morpholin-4-yl-pyridine-3-carboxylic acid amide] | 180% | 2450 nM
13 | CCSc1nc(N2CCOCC2)cc(C)c1C(=O)NCc1cccc(S(C)(=O)=O)c1 [Example 231, 2-Ethylsulfanyl-4-methyl-N-[(3-methylsulfonyl-phenyl)-methyl]-6-morpholin-4-yl-pyridine-3-carboxylic acid amide] | 61% | 10400 nM
14 | CCSc1nc(N2CCc3nc(C(F)(F)F)ccc3C2)cc(C)c1C(=O)NCc1cccc(F)c1 [Example 232, 2-Ethylsulfanyl-N-[(3-fluorophenyl)-methyl]-4-methyl-6-[2-(trifluoromethyl)-5,6,7,8-tetrahydro-[1,6]naphthyridin-6-yl]-pyridine-3-carboxylic acid amide] | 131% | 112 nM
15 | CCSc1nc(N2CCOC[C@H]2C)cc(C)c1C(=O)NCCCC(F)(F)F [Example 235, 2-Ethylsulfanyl-4-methyl-6-[(3R)-3-methyl-morpholin-4-yl]-N-(4,4,4-trifluoro-butyl)-pyridine-3-carboxylic acid amide] | 235% | 196 nM
16 | COc1nc(N2CCOC[C@H]2C)cc(C)c1C(=O)NCCCC(F)(F)F [Example 236, 2-Methoxy-4-methyl-6-[(3R)-3-methyl-morpholin-4-yl]-N-(4,4,4-trifluoro-butyl)-pyridine-3-carboxylic acid amide] | 227% | 469 nM
17 | CCSc1nc(N2CCOC[C@H]2C)cc(C)c1C(=O)NCc1ccc(C(F)(F)F)cc1 [Example 237, 2-Ethylsulfanyl-4-methyl-6-[(3R)-3-methyl-morpholin-4-yl]-N-[[4-(trifluoromethyl)-phenyl]-methyl]-pyridine-3-carboxylic acid amide] | 148% | 56 nM
18 | COc1nc(N2CCOC[C@H]2C)cc(C)c1C(=O)NCc1ccc(C(F)(F)F)cc1 [Example 238, 2-Methoxy-4-methyl-6-[(3R)-3-methyl-morpholin-4-yl]-N-[[4-(trifluoromethyl)-phenyl]-methyl]pyridine-3-carboxylic acid amide] | 164% | 102 nM

The remaining compounds from weak to strong by EC50, led by results:

Row | Emax | EC50 | Structure (SMILES)
19 | 131% | 12900 nM | CCSc1nc(N2CCOCC2)cc(C)c1C(=O)NCCCC(C)(C)CO [Example 230, 2-Ethylsulfanyl-N-(5-hydroxy-4,4-dimethyl-pentyl)-4-methyl-6-morpholin-4-yl-pyridine-3-carboxylic acid amide]
20 | 56% | 7310 nM | CCSc1nc(N2CCC3(COC3)C2)cc(C)c1C(=O)NCc1cccc(F)c1 [Example 222, 2-Ethylsulfanyl-N-[(3-fluorophenyl)-methyl]-4-methyl-6-(2-oxa-6-azaspiro[3.4]octan-6-yl)-pyridine-3-carboxylic acid amide]
21 | 165% | 4190 nM | CCSc1nc(N2CCOCC2)cc(C)c1C(=O)NCCC(O)c1ccccc1 (stereo not shown) [Example 227, 2-Ethylsulfanyl-N-(3-hydroxy-3-phenyl-propyl)-4-methyl-6-morpholin-4-yl-pyridine-3-carboxylic acid amide]
22 | 132% | 719 nM | CCSc1nc(N2CCOC(CCOC)C2)cc(C)c1C(=O)NCc1cccc(F)c1 (stereo not shown) [Example 229, 2-Ethylsulfanyl-N-[(3-fluorophenyl)-methyl]-6-[2-(2-methoxy-ethyl)-morpholin-4-yl]-4-methyl-pyridine-3-carboxylic acid amide]
23 | 136% | 693 nM | CCSc1nc(N2CCO[C@H](COC)C2)cc(C)c1C(=O)NCc1cccc(F)c1 [Example 224, 2-Ethylsulfanyl-N-[(3-fluorophenyl)-methyl]-6-[(2S)-2-(methoxymethyl)-morpholin-4-yl]-4-methyl-pyridine-3-carboxylic acid amide]
24 | 61% | 281 nM | CCSc1nc(N2CCOCC2)cc(C)c1C(=O)NCc1cc(C)cc(C)c1 [Example 208, N-[(3,5-Dimethyl-phenyl)-methyl]-2-ethylsulfanyl-4-methyl-6-morpholin-4-yl-pyridine-3-carboxylic acid amide]
25 | 194% | 272 nM | CCSc1nc(N(C)C2CCOC2)cc(C)c1C(=O)NCCCC(C)(C)C (stereo not shown) [Example 218, N-(4,4-Dimethyl-pentyl)-2-ethylsulfanyl-4-methyl-6-(methyl-tetrahydro-furan-3-yl-amino)-pyridine-3-carboxylic acid amide]
26 | 191% | 147 nM | COc1nc(N2CCOC[C@H]2C)cc(C)c1C(=O)NCc1ccc(Cl)cc1 [Example 215, N-[(4-Chlorophenyl)-methyl]-2-methoxy-4-methyl-6-[(3R)-3-methyl-morpholin-4-yl]-pyridine-3-carboxylic acid amide]
27 | 225% | 143 nM | CCSc1nc(N(C)CCOC)cc(C)c1C(=O)NCCCC(C)(C)C [Example 211, N-(4,4-Dimethyl-pentyl)-2-ethylsulfanyl-6-(2-methoxy-ethyl-methyl-amino)-4-methyl-pyridine-3-carboxylic acid amide]
28 | 186% | 129 nM | COc1nc(N2CCOC[C@H]2C)cc(C)c1C(=O)NCc1ccc(F)c(F)c1 [Example 226, N-[(3,4-Difluoro-phenyl)-methyl]-2-methoxy-4-methyl-6-[(3R)-3-methyl-morpholin-4-yl]-pyridine-3-carboxylic acid amide]
29 | 195% | 124 nM | COc1nc(N2CCOC[C@H]2C)cc(C)c1C(=O)NCc1cc(F)cc(F)c1 [Example 234, N-[(3,5-Difluoro-phenyl)-methyl]-2-methoxy-4-methyl-6-[(3R)-3-methyl-morpholin-4-yl]-pyridine-3-carboxylic acid amide]
30 | 212% | 91 nM | CCSc1nc(N2CCOC(C)C2)cc(C)c1C(=O)NCCCC(C)(C)C (stereo not shown) [Example 219, N-(4,4-Dimethyl-pentyl)-2-ethylsulfanyl-4-methyl-6-(2-methyl-morpholin-4-yl)-pyridine-3-carboxylic acid amide]
31 | 196% | 70 nM | CCSc1nc(N2CCOC[C@H]2C)cc(C)c1C(=O)NCc1cc(F)cc(F)c1 [Example 233, N-[(3,5-Difluoro-phenyl)-methyl]-2-ethylsulfanyl-4-methyl-6-[(3R)-3-methyl-morpholin-4-yl]-pyridine-3-carboxylic acid amide]
32 | 259% | 22 nM | CCC(C)c1nc(N2CCOCC2)cc(C)c1C(=O)NCCCC(C)(C)C (stereo not shown) [Example 221, N-(4,4-Dimethyl-pentyl)-4-methyl-2-(1-methyl-propyl)-6-morpholin-4-yl-pyridine-3-carboxylic acid amide]
